In patent US12331068B2, “Compositions and methods for inhibiting CD73” (Peloton Therapeutics, Inc., priority 2018, dated 2025):

Assays:
Human CD73 = biological target: T1, Human CD73 (Homo sapiens, UniProt P21589); assay: CD73 Enzyme Assay (EnzChek PNP/MESG kinetic readout of AMP hydrolysis); format: biochemical; conditions: 0.25 nM hCD73, 25 μM AMP; read-out: CD73 Enzyme Assay IC50
T1 construct: purchased R&D Systems; host or cells: CHO cells
T1 sequence (P21589 27-549): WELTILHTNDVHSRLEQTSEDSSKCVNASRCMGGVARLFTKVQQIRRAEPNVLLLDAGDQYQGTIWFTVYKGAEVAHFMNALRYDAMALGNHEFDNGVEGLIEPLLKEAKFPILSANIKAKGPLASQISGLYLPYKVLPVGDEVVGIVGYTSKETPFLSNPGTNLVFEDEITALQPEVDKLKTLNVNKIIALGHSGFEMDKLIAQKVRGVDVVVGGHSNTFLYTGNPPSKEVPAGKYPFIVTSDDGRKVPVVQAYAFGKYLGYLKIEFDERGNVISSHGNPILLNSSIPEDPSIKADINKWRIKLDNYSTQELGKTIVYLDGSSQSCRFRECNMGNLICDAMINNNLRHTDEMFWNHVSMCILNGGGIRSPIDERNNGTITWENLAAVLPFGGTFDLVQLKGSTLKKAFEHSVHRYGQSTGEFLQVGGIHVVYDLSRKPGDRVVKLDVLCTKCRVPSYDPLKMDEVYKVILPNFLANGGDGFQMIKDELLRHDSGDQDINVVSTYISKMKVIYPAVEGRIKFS
Method in brief: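 Compounds tested as 15-point, 3-fold dilution series (300 μM to 0.0002 μM) in DMSO. Kinetic absorbance at 360 nm read every minute for 10–20 min, initial velocity taken from the linear portion.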

[1] = biological target: T2, CD73 on U138 human neuroglioma cells (Homo sapiens, UniProt P21589); assay: CD73 Cell-Based Assay (inorganic phosphate from AMP, malachite green); conditions: AMP substrate, 2 hours at 37° C., read-out: CD73 Cell-Based assay IC50
T2 construct: U138 cells were obtained from ATCC and cultured in DMEM with 10% FBS; host or cells: U138 human neuroglioma cells
T2 sequence (P21589 27-549): T1 sequence (P21589 27-549)
Method in brief: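 U138 cells, seeded the day before at 2500 per well, were washed and given AMP substrate (200 μM in the added mixture, before dilution into the buffer) together with compound. After 2 h at 37 °C in 5% CO2, inorganic phosphate in the supernatant was measured with malachite green.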

Row | IC50 (Human CD73) | IC50 [1] | Compound
1 | < 10 nM | < 10 nM | N#Cc1nc2c(ccn2[C@@H]2O[C@H](COCP(=O)(O)O)[C@@H](O)[C@H]2O)c(NC2CCCC2)c1C#N [Compound 104]
2 | < 10 nM | < 10 nM | N#Cc1nc2c(ccn2[C@@H]2O[C@H](COCP(=O)(O)O)[C@@H](O)[C@H]2O)c(N2CCC(F)(F)C2)c1C#N [Compound 105]
3 | < 10 nM | < 10 nM | N#Cc1nc2c(ccn2[C@@H]2O[C@H](COCP(=O)(O)O)[C@@H](O)[C@H]2O)c(N2C[C@@H](F)[C@@H](F)C2)c1C#N [Compound 106]
4 | < 10 nM | < 10 nM | N#Cc1c(Cl)nc2c(ncn2[C@@H]2O[C@H](CS(=O)(=O)CP(=O)(O)O)[C@@H](O)[C@H]2O)c1NC1CC(F)(F)C1 [Compound 113, (((((2S,3S,4R,5R)-5-(5-chloro-6-cyano-7-((3,3-difluorocyclobutyl)amino)-3H-imidazo[4,5-b]pyridin-3-yl)-3,4-dihydroxytetrahydrofuran-2-yl)methyl)sulfonyl)methyl)phosphonic acid]
5 | < 10 nM | < 10 nM | N#Cc1c(Cl)nc2c(ncn2[C@@H]2O[C@H](CS(=O)(=O)CP(=O)(O)O)[C@@H](O)[C@H]2O)c1NC1CC(F)C1 (stereo partly drawn) [Compound 117]
6 | < 10 nM | < 10 nM | N#Cc1c(Cl)nc2c(ncn2[C@@H]2O[C@H](CS(=O)(=O)CP(=O)(O)O)[C@@H](O)[C@H]2O)c1N1CCC(F)(F)C1 [Compound 118]
7 | 10 to 100 nM | < 10 nM | N#Cc1c(Cl)nc2c(cnn2[C@@H]2O[C@H](CS(=O)(=O)CP(=O)(O)O)[C@@H](O)[C@H]2O)c1N1CCC(F)(F)C1 [Compound 119, (((((2S,3S,4R,5R)-5-(6-chloro-5-cyano-4-(3,3-difluoropyrrolidin-1-yl)-1H-pyrazolo[3,4-b]pyridin-1-yl)-3,4-dihydroxytetrahydrofuran-2-yl)methyl)sulfonyl)methyl)phosphonic acid]
8 | < 10 nM | < 10 nM | N#Cc1c(Cl)nc2c(ncn2[C@@H]2O[C@H](CS(=O)(=O)CP(=O)(O)O)[C@@H](O)[C@H]2O)c1NC1CCC(F)(F)CC1 [Compound 126]
9 | < 10 nM | < 10 nM | N#Cc1c(Cl)nc2c(ncn2[C@@H]2O[C@H](CS(=O)(=O)CP(=O)(O)O)[C@@H](O)[C@H]2O)c1NC1CC2CC2C1 (stereo partly drawn) [Compound 127]
10 | < 10 nM | < 10 nM | N#Cc1c(Cl)nc2c(cnn2[C@@H]2O[C@H](CS(=O)(=O)CP(=O)(O)O)[C@@H](O)[C@H]2O)c1NC1CC2CC2C1 (stereo partly drawn) [Compound 128]
11 | < 10 nM | < 10 nM | N#Cc1c(Cl)nc2c(cnn2[C@@H]2O[C@H](CS(=O)(=O)CP(=O)(O)O)[C@@H](O)[C@H]2O)c1NC1CC(F)(F)C1 [Compound 129]
12 | < 10 nM | < 10 nM | N#Cc1c(Cl)nc2c(cnn2[C@@H]2O[C@H](CS(=O)(=O)CP(=O)(O)O)[C@@H](O)[C@H]2O)c1NC1CCC(F)(F)CC1 [Compound 130]
13 | 10 to 100 nM | < 10 nM | N#Cc1c(Cl)nc2c(ncn2[C@@H]2O[C@H](CS(=O)(=O)CP(=O)(O)O)[C@@H](O)[C@H]2O)c1N[C@H]1C[C@H](F)C1 [Compound 136]
14 | < 10 nM | < 10 nM | N#Cc1nc2c(ccn2[C@@H]2O[C@H](CS(=O)(=O)CP(=O)(O)O)[C@@H](O)[C@H]2O)c(NC2CCC(F)(F)CC2)c1Cl [Compound 137]
15 | 10 to 100 nM | < 10 nM | N#Cc1nc2c(ccn2[C@@H]2O[C@H](CS(=O)(=O)CP(=O)(O)O)[C@@H](O)[C@H]2O)c(N2C[C@@H](F)[C@@H](F)C2)c1Cl [Compound 138]
16 | < 10 nM | < 10 nM | N#Cc1nc2c(ccn2[C@@H]2O[C@H](CS(=O)(=O)CP(=O)(O)O)[C@@H](O)[C@H]2O)c(NC2CC(F)(F)C2)c1Cl [Compound 142]
17 | < 10 nM | < 10 nM | N#Cc1nc2c(ccn2[C@@H]2O[C@H](CS(=O)(=O)CP(=O)(O)O)[C@@H](O)[C@H]2O)c(N2CCC(F)(F)C2)c1Cl [Compound 143]
18 | < 10 nM | < 10 nM | N#Cc1c(Cl)nc2c(cnn2[C@@H]2O[C@H](CS(=O)(=O)CP(=O)(O)O)[C@@H](O)[C@H]2O)c1N[C@H]1C[C@H](F)C1 [Compound 144, (((((2S,3S,4R,5R)-5-(6-chloro-5-cyano-4-(((1r,3R)-3-fluorocyclobutyl)amino)-1H-pyrazolo[3,4-b]pyridin-1-yl)-3,4-dihydroxytetrahydrofuran-2-yl)methyl)sulfonyl)methyl)phosphonic acid]
19 | < 10 nM | < 10 nM | N#Cc1c(Cl)nc2c(ccn2[C@@H]2O[C@H](CS(=O)(=O)CP(=O)(O)O)[C@@H](O)[C@H]2O)c1N[C@H]1C[C@@H](F)C1 [Compound 149]
20 | < 10 nM | < 10 nM | N#Cc1c(Cl)nc2c(cnn2[C@@H]2O[C@H](CS(=O)(=O)CP(=O)(O)O)[C@@H](O)[C@H]2O)c1N[C@H]1C[C@@H](F)C1 [Compound 150]

Row | IC50 (Human CD73) | IC50 [1] | Compound
21 | < 10 nM | < 10 nM | N#Cc1c(Cl)nc2c(c(F)cn2[C@@H]2O[C@H](COCP(=O)(O)O)[C@@H](O)[C@H]2O)c1N1CCC(F)(F)C1 [Compound 151]
22 | < 10 nM | > 100 nM | N#Cc1c(Cl)nc2c(c(F)cn2[C@@H]2O[C@H](CS(=O)(=O)CP(=O)(O)O)[C@@H](O)[C@H]2O)c1N1CCC(F)(F)C1 [Compound 152]
23 | < 10 nM | 10 to 100 nM | CN(c1c(C#N)c(Cl)nc2c1ccn2[C@@H]1O[C@H](COCP(=O)(O)O)[C@@H](O)[C@H]1O)C1CC(F)(F)C1 [Compound 153]
24 | < 10 nM | < 10 nM | CN(c1c(C#N)c(Cl)nc2c1ccn2[C@@H]1O[C@H](CS(=O)(=O)CP(=O)(O)O)[C@@H](O)[C@H]1O)C1CC(F)(F)C1 [Compound 154]
25 | < 10 nM | < 10 nM | N#Cc1c(Cl)nc2c(ccn2[C@@H]2O[C@H](COCP(=O)(O)O)[C@@H](O)[C@H]2O)c1NC1CC2(CCC2)C1 [Compound 155]
26 | < 10 nM | < 10 nM | N#Cc1c(Cl)nc2c(ccn2[C@@H]2O[C@H](COCP(=O)(O)O)[C@@H](O)[C@H]2O)c1NC1CC2(CC2)C1 [Compound 157]
27 | < 10 nM | < 10 nM | N#Cc1c(Cl)nc2c(ccn2[C@@H]2O[C@H](CS(=O)(=O)CP(=O)(O)O)[C@@H](O)[C@H]2O)c1NC1CC2(CCC2)C1 [Compound 158]
28 | < 10 nM | < 10 nM | N#Cc1c(Cl)nc2c(ccn2[C@@H]2O[C@H](CS(=O)(=O)CP(=O)(O)O)[C@@H](O)[C@H]2O)c1NC1CC2(CC2)C1 [Compound 159]
29 | < 10 nM | < 10 nM | N#Cc1c(Cl)nc2c(c(F)cn2[C@@H]2O[C@H](COCP(=O)(O)O)[C@@H](O)[C@H]2O)c1NC1CC(F)(F)C1 [Compound 160]
30 | < 10 nM | < 10 nM | N#Cc1c(Cl)nc2c(c(F)cn2[C@@H]2O[C@H](CS(=O)(=O)CP(=O)(O)O)[C@@H](O)[C@H]2O)c1NC1CC(F)(F)C1 [Compound 162]
31 | < 10 nM | < 10 nM | N#Cc1c(Cl)nc2c(ccn2[C@@H]2O[C@H](CS(=O)(=O)CP(=O)(O)O)[C@@H](O)[C@@H]2F)c1NC1CC(F)(F)C1 [Compound 169]
32 | < 10 nM | < 10 nM | N#Cc1c(Cl)nc2c(ccn2[C@@H]2O[C@H](CS(=O)(=O)CP(=O)(O)O)[C@@H](O)[C@@H]2F)c1NC1CCCC1 [Compound 170]
33 | < 10 nM | < 10 nM | N#Cc1c(Cl)nc2c(ccn2[C@@H]2O[C@H](CS(=O)(=O)CP(=O)(O)O)[C@@H](O)[C@@H]2F)c1N1CCC(F)(F)C1 [Compound 171]
34 | 10 to 100 nM | > 100 nM | N#Cc1c(Cl)nc2c(ccn2[C@@H]2O[C@H](CS(=O)(=O)CP(=O)(O)O)[C@@H](O)[C@@H]2F)c1N [Compound 173]
35 | 10 to 100 nM | 10 to 100 nM | N#Cc1nc2c(ccn2[C@@H]2O[C@H](CS(=O)(=O)CP(=O)(O)O)[C@@H](O)[C@@H]2F)c(NC2CC(F)(F)C2)c1C#N [Compound 174]
36 | < 10 nM | < 10 nM | N#Cc1nc2c(ccn2[C@@H]2O[C@H](CS(=O)(=O)CP(=O)(O)O)[C@@H](O)[C@H]2O)c(NC2CC(F)(F)C2)c1C#N [Compound 177]
37 | < 10 nM | < 10 nM | C[C@@H](Nc1c(C#N)c(Cl)nc2c1ccn2[C@@H]1O[C@H](CS(=O)(=O)CP(=O)(O)O)[C@@H](O)[C@H]1O)c1ccc(C#N)cc1 [Compound 178]
38 | < 10 nM | < 10 nM | C[C@@H](Nc1c(C#N)c(Cl)nc2c1ccn2[C@@H]1O[C@H](CS(=O)(=O)CP(=O)(O)O)[C@@H](O)[C@H]1O)c1cccc(C#N)c1 [Compound 179]
39 | < 10 nM | < 10 nM | C[C@H](Nc1c(C#N)c(Cl)nc2c1cnn2[C@@H]1O[C@H](CS(=O)(=O)CP(=O)(O)O)[C@@H](O)[C@H]1O)c1cccc(F)c1 [Compound 180]
